Assay results taken from US20070270392A1, “Use of a Cyclopentenone Prostaglandin for Delaying the Onset and/or Preventing the Continuation of Labour” (Imperial College Innovations Limited, priority 2003, published 2007).
Residues, ends and D or L forms follow the SMILES beside them. *: point of attachment. Cbz = O=C(OCc1ccccc1)*

Assays:
[1] = system: NF-κB; assay: EMSA of NF-κB DNA binding in nuclear extracts of treated myometrial cells; type: cell-based, human; details: myometrial cells; for IL-1β-induced NF-κB DNA binding: IL-1β stimulation 15 min
Experimental: (§1) Electro-mobility shift assay (EMSA) analysis of NF-κB DNA binding in nuclear protein extracts from (A) myometrial cells, (B) L+amnion cells, and (C) L− amnion cells treated with 15dPGJ2 or vehicle for 2 h+/−IL-1b stimulation (15 min). Consensus kB probe used to assess NF-κB DNA binding, and consensus Oct-1 probe used as control.
Consensus κB probe used to assess NF-κB DNA binding, consensus Oct-1 probe used as control. For supershift analysis, extracts were preincubated with antibodies against p50 or p65.
EMSA analysis of nuclear protein extracts from myometrial cells treated with (A) WY-14643 or vehicle, and (B) high doses of troglitazone, WY-14643 or vehicle for 2 h followed by IL-1b stimulation (15 min). Consensus κB probe used to assess NFκB DNA binding, consensus Oct-1 and Sp-1 probes used as controls.
(§2) EMSA analysis of nuclear protein extracts from (A) myometrial cells, and (B) amnion cells treated with PGA1 or vehicle for 2 h followed by IL-1b stimulation (15 min). Consensus κB probe used to assess NFκB DNA binding, consensus Oct-1 probe used as control. For supershift analysis, extracts were preincubated with antibodies against p50 or p65.
(§3) Analysis of nuclear protein extracts from myometrial cells treated with PGE2 or vehicle for 2 h+/−TNFα or IL-1b stimulation (15 min). (A) EMSA using consensus κB probe. (B) Western immunoblot probing for nuclear p65.
(§4) EMSA analysis of nuclear protein extracts from (A) L− amnion cells and (B) myometrial cells treated with vehicle, PGE2 or IL-1β. Consensus κB probe used.
(§5) Myometrial tissue was collected at term from the upper margin of uterine incision at the time of lower segment caesarean section either prior to the onset of labour (L−) or […] (L+). L+ samples were collected by Dr Mark Johnson and Dr S Soorrana at Chelsea & Westminster Hospital. Myometrial tissue was dissected, rinsed in PBS, and digested in serum-free DMEM containing 15 mg/ml collagenase 1A (Sigma), 15 mg/ml collagenase X, and 50 mg/ml bovine serum albumin for 45 min at 37° C. The cell suspension was filtered through a cell strainer, centrifuged at 400 g for 5 min, and the pellet re-suspended and plated out in DMEM, 10% FCS (Helena BioScience), 1% L-glutamine, 1% penicillin-streptomycin. Cells were used between passage numbers 1-4.
(§6) Nuclear and cytosolic protein extracts were obtained from cultured amnion cells as described by Schreiber et al (1989). For nuclear/cytosolic fractionation, confluent cell monolayers were scraped and lysed using a buffer containing 10 mM HEPES, 10 mM KCl, 0.1 mM EDTA, 0.1 mM EGTA, 2 mM DTT, 1% (v/v) NP-40 and complete protease inhibitor tablets (CPIs, Roche), diluted to manufacturer's instructions. Cell lysates were incubated on ice for 10 min and NP-40 added to a final concentration of 1% (v/v). Lysates were vortexed for 10 secs and centrifuged for 30 secs at 4° C., 12000 g. The supernatants were retained as the cytosolic protein extracts. The pellets were resuspended in buffer containing 10 mM HEPES, 10 mM KCl, 0.1 mM EDTA, 0.1 mM EGTA, 2 mM DTT, 400 mM NaCl, 1% NP-40 (v/v) and CPIs. Samples were shaken vigorously for 15 min in an ice bath. The nuclear protein extracts were obtained in the supernatant following a 5 min centrifugation at 4° C., 12000 g.
(§7) Sense and antisense strands (175 nmole/ml each) were incubated in annealing buffer (10 mM Tris-HCl pH7.5, 100 mM NaCl, 1 mM EDTA) for 10 min at 65° C., and allowed to cool at room temperature for 2 h. 3.5 pmole double-stranded oligonucleotides were end-labelled with 0.37 MBq ^32P(γATP) by incubating for 30 min at 37° C. with T4 polynucleotide kinase. Labelled oligonucleotides were recovered by centrifugation at […] for 2 min through MicroSpin G-25 or G-50 sephadex columns (Amersham Biosciences). […]

[2] = system: NF-κB; assay: Western immunoblot of NF-κB activation (p65, p50, IκB) in amnion cells; type: cell-based, human; details: L−
Experimental: (§8) Western immunoblots of nuclear or cytosolic protein extracts from (A) myometrial cells, (B) L− amnion cells, and (C) L+amnion cells treated with 15dPGJ2 or vehicle for 2 h+/−IL-1, stimulation (15 min). Blots probed with antibodies against p65, p50 or IκBα.
(§9) Placentae were obtained from patients at term either at elective Caesarean section prior to labour (L−) or following spontaneous labour onset and vaginal delivery (L+). Amnion cells were prepared as described in Bennett et al., (1989). Briefly, the amnion was separated from the placenta, washed 3× in PBS, cut into strips, and incubated in 0.51 mM EDTA in PBS for 15 min. The strips were washed in PBS 2× and digested with 2.5 mg/ml dispase in serum-free DMEM for 35 min at 37° C. The amnion was then shaken vigorously in DMEM, 10% FCS to dissociate the cells, the remaining strips discarded, and the cell suspension pelleted at 175 g for 10 min and cultured in DMEM, 10% FCS (Sigma), 1% L-glutamine, 1% penicillin-streptomycin.
as §6
Protein samples (20-70 μg) were mixed with Laemmli sample buffer (1:1) containing β-mercaptoethanol (5%), and boiled for 5 min. Proteins were then separated by SDS-PAGE (12-14% gels) and transferred onto PVDF membrane (Amersham Pharmacia Biotech). The membranes were blocked overnight in 5% non-fat milk prepared in PBS-T buffer, at 4° C. The blots were incubated with the primary antibody in 1% non-fat milk in PBS-T buffer for 1 h, and washed three times (10 min each) in PBS-T with vigorous shaking. The blots were then incubated with HRP-conjugated secondary antibody (diluted 1:2000 in 1% non-fat milk in PBS-T buffer) for 1 h and washed three times (10 min each) in PBS-T. Signal detection was achieved using enhanced chemi-luminescence (ECL plus system, Amersham Pharmacia Biotech) according to manufacturer's instructions. […]

[3] = system: NF-κB; assay: EMSA of NF-κB DNA binding in nuclear extracts of treated amnion cells; type: cell-based, human
Experimental: as §1
EMSA analysis of nuclear protein extracts from amnion cells treated with 15dPGJ2+/−GW9662 or vehicle for 2 h followed by IL-1β stimulation (15 min). Consensus kB probe used to assess NFκB DNA binding, consensus Oct-1 probe used as control.
as §2, §4, §9, §6, §7

[4] = system: NF-κB; assay: Western immunoblot of NF-κB activation (p65, p50, IκB) in myometrial cells; type: cell-based, human; design: Accumulation of phosphorylated IκBα: dose or concentration left out as unconfirmed
Experimental: as §8
Western immunoblot of nuclear or cytosolic protein extracts from myometrial cells treated with PGA1 or vehicle for 2 h followed by IL-1β stimulation (15 min). Blots probed with antibodies against p65 or IκBa.
as §3
Western immunoblots of cytosolic extracts from myometrial cells (A) treated with 15dPGJ2 for 2 h+/−IL1b for 15 min; probed for IKK, and (B) treated with […] 15dPGJ2, […] MG132 or vehicle for 2 h, +/−IL-1β for 15 min; probed for IκBα.
as §5, §6
Protein samples (20-70 μg) were mixed with Laemmli sample buffer (1:1) containing β-mercaptoethanol (5%), and boiled for 5 min. Proteins were then separated by SDS-PAGE (12-14% gels) and transferred onto PVDF membrane (Amersham Pharmacia Biotech). The membranes were blocked overnight in 5% non-fat milk prepared in PBS-T buffer, at 4° C. The blots were incubated with the primary antibody in 1% non-fat milk in PBS-T buffer for 1 h, and washed three times (10 min each) in PBS-T with vigorous shaking. The blots were then incubated with HRP-conjugated secondary antibody (diluted 1:2000 in 1% non-fat milk in PBS-T buffer) for 1 h and washed three times (10 min each) in PBS-T. Signal detection was achieved using enhanced chemi-luminescence (ECL plus system, Amersham Pharmacia Biotech) according to manufacturer's instructions.
30-50 μg protein extracts were subjected to SDS-PAGE and Western immuno-blotting. Secondary antibodies were IgG-HRP and ECL Plus detection kit (Amersham Pharmacia Biotech, Amersham Place, Little Chalfont, Bucks, HP7 9NA) was used for visualisation.

[5] = system: NF-κB; assay: NF-κB-dependent luciferase reporter (κB.BG.Luc) in myometrial cells; type: cell-based, human; details: treated 2 h, IL-1β 1 ng/ml 6 h
Experimental: Myometrial cells were transiently transfected with the NFκB-dependent reporter construct κB.BG.Luc, treated with 15dPGJ2 or vehicle for 2 h, +/−IL-1β(1 ng/ml) for 6 h. […] Values are normalised for b-gal reporter activity. (NS=nonstimulated).
Myometrial cells were transfected with […] κB.BG.Luc reporter and 200 ng PPAR-γ expression vector and treated with 15d-PGJ2 for 2 h followed by IL-1β (1 ng/ml) for 6 h. Values are normalised for β-galactosidase reporter activity. (NS=nonstimulated).
as §5
pGL3.6 κB.BG.luc: a NF-κB-dependent reporter construct with 6 copies of the NF-κB binding site.
Cells were co-transfected with the renilla vector pRL-CMV or a β-galactosidase vector pCH110 as internal controls for transfection efficiencies.

[6] = system: PPARα; details: GAL4 chimera transfection system; cited from earlier work

CCCCC(C)(C)[C@H](O)/C=C/[C@H]1[C@H](O)CC(=O)[C@@H]1C/C=C\CCCC(=O)O [16,16-Dimethyl-PGE2]
Synergy with IL-1β or TNFα on NF-κB activity [1]: nor did it synergise
IL-1β-induced NF-κB DNA binding ([1]; treated 2 h): did not inhibit
TNFα- and IL-1β-induced NFκB activation ([1]; treated 2 h, TNFα or IL-1b 15 min): does not inhibit
Induction of NF-κB DNA binding / stimulation of NF-κB activity by the compound alone ([1]; listed as 16,16-dimethyl-PGE2): neither did it stimulate
Induction of NF-κB DNA binding / stimulation of NF-κB activity by the compound alone ([1]; listed as PGE2): does not induce
IL-1β-induced p65 nuclear translocation [2]: did not inhibit
Induction of NF-κB DNA binding by the compound alone ([3]; L− amnion cells): does not induce
IL-1β-induced NF-κB DNA binding ([3]; L− and L+ amnion cells, treated 2 h, IL-1β stimulation 15 min): did not inhibit
IL-1β-induced p65 nuclear translocation [4]: did not inhibit

CN(CCOc1ccc(C[C@H](Nc2ccccc2C(=O)c2ccccc2)C(=O)O)cc1)c1ccccn1 [GW1929, reference compound]
IL-1β-induced NF-κB DNA binding ([1]; treated 2 h): failed to inhibit
IL-1-induced NF-κB transcriptional activity [5]: not

O=C(Nc1ccccc1)c1cc([N+](=O)[O-])ccc1Cl [GW-9662]
Alleviation of 15d-PGJ2 inhibition of NF-κB DNA binding ([3]; amnion cells treated with 15d-PGJ2 in the presence of GW-9662): failed to alleviate

CC(C)C[C@@H](C=O)NC(=O)[C@H](CC(C)C)NC(=O)[C@H](CC(C)C)NC(=O)OCc1ccccc1 [MG132, reference compound] (Cbz-Leu-Leu-Leu-aldehyde)
IL-1β-induced IκBα degradation [4]: prevented
Accumulation of phosphorylated IκBα ([4]; 2 h, IL-1β 15 min): resulted in the accumulation

Cc1cccc(Nc2cc(Cl)nc(SCC(=O)O)n2)c1C [WY-14643, reference compound]
NF-κB DNA binding ([1]; 10-100 μM concentrations): had no effect
IL-1-induced NF-κB transcriptional activity [5]: not
Doses that can transactivate PPARα [6]: 5 to 25 µM
